One block for each compound: values may come before it. Active and inactive are the calls of the source.
Legend:
Ion channel NompC = Ion channel NompC (Danio rerio, UniProt Q7T1G6); experiment: Dose response cell-based high-throughput screening assay for agonists of the transient receptor potential channel N1 (TRPN1). [Related pubchem assays (depositor defined):AID1424, AID1448]; assay type: functional
[1] = HEK-293T viability loss after treatment – luminescence, T-cell screen hits, cytotoxicity control for TCR NF-kB inhibitor project, dose response (AID 489026); assay type: functional, cell-based;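 also: cells exposed to compound about 14 hours before the viability readout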
Mucolipin-3 = Mucolipin-3 (Homo sapiens, UniProt Q8TDD5); experiment: Fluorescence counterscreen assay for […] agonists: dose response cell-based high-throughput screening assay to identify agonists of the transient receptor potential channel ML3 (TRPML3). [Related pubchem assays: 1424, 1448 ]; assay type: functional
Chain of Mucolipin-3 (Q8TDD5 whole entry): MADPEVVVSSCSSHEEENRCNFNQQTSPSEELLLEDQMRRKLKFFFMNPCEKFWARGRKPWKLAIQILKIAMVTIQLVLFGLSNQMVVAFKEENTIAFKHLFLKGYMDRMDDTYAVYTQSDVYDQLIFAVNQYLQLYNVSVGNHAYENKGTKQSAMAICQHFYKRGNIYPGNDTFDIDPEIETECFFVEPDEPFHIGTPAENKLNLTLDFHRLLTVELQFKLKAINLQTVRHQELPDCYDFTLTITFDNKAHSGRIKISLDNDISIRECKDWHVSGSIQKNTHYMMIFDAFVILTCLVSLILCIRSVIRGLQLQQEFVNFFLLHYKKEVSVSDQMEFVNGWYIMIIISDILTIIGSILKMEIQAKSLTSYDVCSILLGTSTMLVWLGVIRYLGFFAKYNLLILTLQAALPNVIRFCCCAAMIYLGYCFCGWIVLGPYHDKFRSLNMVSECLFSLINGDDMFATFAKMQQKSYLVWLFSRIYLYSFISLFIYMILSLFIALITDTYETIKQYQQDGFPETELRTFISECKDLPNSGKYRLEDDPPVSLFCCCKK

[2] = biological target: Lysine-specific demethylase 4A (Homo sapiens, UniProt O75164); experiment: inhibition of JMJD2A H3K9me3 demethylation – biochemical, DELFIA europium, cherry-picked samples, selectivity assay for GASC-1 inhibitor project, dose response (AID 488840)
Chain of Lysine-specific demethylase 4A (O75164 whole entry): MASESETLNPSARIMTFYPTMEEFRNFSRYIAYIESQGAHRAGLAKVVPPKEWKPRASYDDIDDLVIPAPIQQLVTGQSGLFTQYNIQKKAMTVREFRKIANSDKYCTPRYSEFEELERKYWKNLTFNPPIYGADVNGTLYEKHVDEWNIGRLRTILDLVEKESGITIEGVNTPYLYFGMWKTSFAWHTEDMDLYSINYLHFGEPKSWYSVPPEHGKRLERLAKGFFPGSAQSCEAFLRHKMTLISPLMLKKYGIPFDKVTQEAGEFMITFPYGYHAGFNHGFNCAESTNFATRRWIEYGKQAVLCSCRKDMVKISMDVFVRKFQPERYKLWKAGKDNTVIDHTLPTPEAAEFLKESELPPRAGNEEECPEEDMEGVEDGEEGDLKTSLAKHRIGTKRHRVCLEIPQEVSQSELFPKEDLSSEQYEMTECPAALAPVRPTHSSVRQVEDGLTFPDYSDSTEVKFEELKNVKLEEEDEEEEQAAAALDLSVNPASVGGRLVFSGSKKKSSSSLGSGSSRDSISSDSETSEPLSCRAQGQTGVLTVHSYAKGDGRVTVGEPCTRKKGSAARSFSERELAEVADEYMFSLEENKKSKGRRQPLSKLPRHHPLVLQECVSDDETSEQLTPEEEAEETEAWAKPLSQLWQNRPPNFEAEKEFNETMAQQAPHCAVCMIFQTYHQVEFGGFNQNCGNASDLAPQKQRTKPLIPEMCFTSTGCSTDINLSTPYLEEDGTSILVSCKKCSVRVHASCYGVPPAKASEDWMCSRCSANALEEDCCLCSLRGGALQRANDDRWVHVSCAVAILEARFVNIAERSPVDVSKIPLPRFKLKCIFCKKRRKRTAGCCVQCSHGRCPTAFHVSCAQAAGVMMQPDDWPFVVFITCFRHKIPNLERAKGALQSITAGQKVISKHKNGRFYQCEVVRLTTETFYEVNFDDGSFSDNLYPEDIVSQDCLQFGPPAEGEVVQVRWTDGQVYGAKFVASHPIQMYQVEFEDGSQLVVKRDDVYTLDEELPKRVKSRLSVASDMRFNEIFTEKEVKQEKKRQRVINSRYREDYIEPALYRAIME

Protein Tat = Protein Tat (Human immunodeficiency virus type 1 group M subtype B (isolate HXB2)(HIV-1), UniProt P04608); assay type: functional;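 also: tat binding to TAR RNA read out by fluorescence polarization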
Chain of Protein Tat (P04608 whole entry, the tested form may be a part): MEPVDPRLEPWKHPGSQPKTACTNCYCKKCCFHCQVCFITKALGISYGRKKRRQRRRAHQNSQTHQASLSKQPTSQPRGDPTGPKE

[3] = biological target: T1, Runt-related transcription factor 1/Core-binding factor subunit beta (Homo sapiens, UniProt Q01196+Q13951); experiment: Runt domain/CBFb-SMMHC interaction disruptors – biochemical, TR-FRET (AID 1438); assay type: protein assay
T1 sequence (Q01196 whole entry, the tested form may be a part): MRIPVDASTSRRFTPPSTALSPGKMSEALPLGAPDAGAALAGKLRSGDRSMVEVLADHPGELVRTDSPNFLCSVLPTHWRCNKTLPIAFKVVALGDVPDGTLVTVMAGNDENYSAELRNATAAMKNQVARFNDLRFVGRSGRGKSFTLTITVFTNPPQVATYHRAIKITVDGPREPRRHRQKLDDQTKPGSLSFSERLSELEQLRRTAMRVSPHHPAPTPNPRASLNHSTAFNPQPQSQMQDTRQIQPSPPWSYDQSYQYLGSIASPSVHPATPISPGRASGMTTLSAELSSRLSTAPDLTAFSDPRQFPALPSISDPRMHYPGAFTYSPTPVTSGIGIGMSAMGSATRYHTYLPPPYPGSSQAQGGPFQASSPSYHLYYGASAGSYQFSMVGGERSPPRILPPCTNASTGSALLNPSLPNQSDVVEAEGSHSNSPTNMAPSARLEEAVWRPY
T1 sequence (Q13951 whole entry, the tested form may be a part): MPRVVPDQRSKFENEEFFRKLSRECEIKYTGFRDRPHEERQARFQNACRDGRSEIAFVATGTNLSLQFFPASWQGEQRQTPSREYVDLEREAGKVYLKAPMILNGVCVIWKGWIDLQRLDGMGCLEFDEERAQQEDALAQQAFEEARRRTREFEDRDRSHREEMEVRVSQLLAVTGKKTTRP

[4] = biological target: T1, Runt-related transcription factor 1/Core-binding factor subunit beta; experiment: disruptors of Runt domain/CBFb-SMMHC interaction – biochemical, FRET, Cerulean-Runt, Venus-CBFb-SMMHC, uHTS, […] (AID 1434); assay type: protein assay
[5] = biological target: T2, Polyadenylate-binding protein 1 (Homo sapiens, UniProt P11940); experiment: MLLE binding blockers, Cy5 peptide tracer – biochemical, fluorescence polarization, Cy5-PAM2 peptide, secondary, miRNA deadenylation inhibitor project, dose response (AID 602260); assay type: functional; details: read-out: IC50_Mean
T2 sequence (P11940 whole entry, the tested form may be a part): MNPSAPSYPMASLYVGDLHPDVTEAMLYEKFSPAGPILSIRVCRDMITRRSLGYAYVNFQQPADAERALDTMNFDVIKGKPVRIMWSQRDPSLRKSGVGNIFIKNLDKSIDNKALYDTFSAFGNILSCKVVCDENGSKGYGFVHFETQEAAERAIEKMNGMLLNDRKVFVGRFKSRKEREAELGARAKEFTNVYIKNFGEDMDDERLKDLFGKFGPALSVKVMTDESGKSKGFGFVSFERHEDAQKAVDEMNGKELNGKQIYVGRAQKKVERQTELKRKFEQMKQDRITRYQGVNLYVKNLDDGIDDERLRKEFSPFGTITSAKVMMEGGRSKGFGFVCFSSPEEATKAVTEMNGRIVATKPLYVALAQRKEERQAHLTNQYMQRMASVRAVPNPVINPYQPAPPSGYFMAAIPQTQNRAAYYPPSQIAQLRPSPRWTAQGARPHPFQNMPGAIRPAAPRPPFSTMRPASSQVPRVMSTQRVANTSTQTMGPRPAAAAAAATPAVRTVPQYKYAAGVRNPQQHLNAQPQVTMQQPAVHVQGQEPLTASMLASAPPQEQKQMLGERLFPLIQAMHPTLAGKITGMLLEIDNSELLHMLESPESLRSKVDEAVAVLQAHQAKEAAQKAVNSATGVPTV

[6] = biological target: T2, Polyadenylate-binding protein 1; experiment: MLLE domain peptide-binding blockers, IC50 – biochemical, fluorescence polarization, FITC-PAM2 peptide, dose response (AID 602259); assay type: functional; details: read-out: IC50_Mean
Hexokinase HKDC1 = biological target: T3, Hexokinase HKDC1 (Homo sapiens, UniProt Q2TB90); experiment: inhibition of HKDC1 glucose phosphorylation – biochemical, W721R variant, dose response (AID 504729); assay type: functional
T3 sequence (Q2TB90 whole entry): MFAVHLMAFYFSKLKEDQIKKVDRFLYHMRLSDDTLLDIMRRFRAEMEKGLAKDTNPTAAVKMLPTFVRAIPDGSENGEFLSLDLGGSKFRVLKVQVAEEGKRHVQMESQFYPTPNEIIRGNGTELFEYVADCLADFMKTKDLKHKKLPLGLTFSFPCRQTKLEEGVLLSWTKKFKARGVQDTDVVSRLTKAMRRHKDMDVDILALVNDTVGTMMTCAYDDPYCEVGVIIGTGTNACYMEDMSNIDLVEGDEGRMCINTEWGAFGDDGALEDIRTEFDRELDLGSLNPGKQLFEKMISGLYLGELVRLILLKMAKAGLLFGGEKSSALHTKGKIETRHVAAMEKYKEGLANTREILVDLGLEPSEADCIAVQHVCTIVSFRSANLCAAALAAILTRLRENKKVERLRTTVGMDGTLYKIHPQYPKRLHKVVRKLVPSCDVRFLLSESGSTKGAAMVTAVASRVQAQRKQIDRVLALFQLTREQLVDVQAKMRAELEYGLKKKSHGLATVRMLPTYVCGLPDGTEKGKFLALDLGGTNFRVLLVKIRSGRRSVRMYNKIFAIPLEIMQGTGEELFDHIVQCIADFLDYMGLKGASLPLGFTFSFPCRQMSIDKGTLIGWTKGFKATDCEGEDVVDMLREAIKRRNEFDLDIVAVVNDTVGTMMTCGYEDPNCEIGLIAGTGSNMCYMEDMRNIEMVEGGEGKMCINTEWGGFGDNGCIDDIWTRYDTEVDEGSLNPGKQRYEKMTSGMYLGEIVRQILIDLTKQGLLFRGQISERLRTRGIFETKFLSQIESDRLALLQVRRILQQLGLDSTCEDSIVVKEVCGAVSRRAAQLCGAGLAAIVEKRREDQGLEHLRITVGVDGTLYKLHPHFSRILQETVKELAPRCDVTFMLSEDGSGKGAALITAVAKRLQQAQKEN

Genome polyprotein = Genome polyprotein (dengue virus type 2, UniProt P29990); experiment: flavivirus cap methylation enzyme inhibition – biochemical, confirmation dose response, primary screen (AID 588689); assay type: functional
Chain of Genome polyprotein (P29990 2492-3391 limits assumed): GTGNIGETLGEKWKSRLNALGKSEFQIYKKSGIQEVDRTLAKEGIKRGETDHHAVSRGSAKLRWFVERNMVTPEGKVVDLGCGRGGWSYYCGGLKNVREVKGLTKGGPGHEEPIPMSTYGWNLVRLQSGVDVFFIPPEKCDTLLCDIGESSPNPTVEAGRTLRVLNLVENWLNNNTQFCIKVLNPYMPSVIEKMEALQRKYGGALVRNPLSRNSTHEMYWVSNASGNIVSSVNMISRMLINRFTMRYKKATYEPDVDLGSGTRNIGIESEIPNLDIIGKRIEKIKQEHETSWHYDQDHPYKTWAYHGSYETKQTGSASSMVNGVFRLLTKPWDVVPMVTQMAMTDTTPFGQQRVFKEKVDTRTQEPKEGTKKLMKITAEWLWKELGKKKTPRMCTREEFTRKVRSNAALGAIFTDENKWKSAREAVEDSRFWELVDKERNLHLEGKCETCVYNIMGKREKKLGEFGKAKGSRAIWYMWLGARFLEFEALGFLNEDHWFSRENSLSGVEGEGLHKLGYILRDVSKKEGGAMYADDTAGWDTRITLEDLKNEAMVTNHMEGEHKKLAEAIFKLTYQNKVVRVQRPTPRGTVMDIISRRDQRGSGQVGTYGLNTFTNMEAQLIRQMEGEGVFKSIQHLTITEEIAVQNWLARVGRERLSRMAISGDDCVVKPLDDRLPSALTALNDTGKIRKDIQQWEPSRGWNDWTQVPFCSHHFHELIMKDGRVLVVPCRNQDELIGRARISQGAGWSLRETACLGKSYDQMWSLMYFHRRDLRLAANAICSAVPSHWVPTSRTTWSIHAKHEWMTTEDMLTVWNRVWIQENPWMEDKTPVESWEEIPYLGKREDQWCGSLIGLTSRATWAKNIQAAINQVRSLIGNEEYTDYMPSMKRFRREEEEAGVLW

Coagulation factor XII = biological target: T4, Coagulation factor XII (Homo sapiens, UniProt P00748); experiment: Factor XIIa Dose Response Confirmation from Single Well HTS. [Related pubchem assays (depositor defined):AID701]; assay type: functional
T4 sequence (P00748 whole entry): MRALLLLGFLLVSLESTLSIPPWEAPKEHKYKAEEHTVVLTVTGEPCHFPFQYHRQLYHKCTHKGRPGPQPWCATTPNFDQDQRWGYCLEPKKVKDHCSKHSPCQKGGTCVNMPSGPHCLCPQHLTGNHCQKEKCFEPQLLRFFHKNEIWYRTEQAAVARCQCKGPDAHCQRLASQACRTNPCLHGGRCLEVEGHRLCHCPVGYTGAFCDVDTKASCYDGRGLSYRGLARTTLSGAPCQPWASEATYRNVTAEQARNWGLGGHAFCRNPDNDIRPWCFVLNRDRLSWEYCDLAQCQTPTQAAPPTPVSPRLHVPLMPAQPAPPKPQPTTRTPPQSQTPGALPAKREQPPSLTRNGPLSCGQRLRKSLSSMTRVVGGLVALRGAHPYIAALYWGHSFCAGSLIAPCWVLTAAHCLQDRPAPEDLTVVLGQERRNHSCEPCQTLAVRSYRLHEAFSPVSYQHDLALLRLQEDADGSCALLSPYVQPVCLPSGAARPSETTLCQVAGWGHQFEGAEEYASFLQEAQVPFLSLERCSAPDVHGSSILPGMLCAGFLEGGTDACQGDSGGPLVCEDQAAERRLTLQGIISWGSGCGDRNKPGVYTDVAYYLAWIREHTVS

[7] = biological target: Sphingosine 1-phosphate receptor 3 (Homo sapiens, UniProt Q99500); experiment: Late stage counterscreen assay for S1P4 antagonists: Fluorescence dose response cell-based screening assay for antagonists of the Sphingosine 1-Phosphate Receptor 3 (S1P3). [Related pubchem assays (depositor defined):AID1510, AID1524, AID1692, AID1853, AID2332, AID489009, AID489017]; assay type: functional
Chain of Sphingosine 1-phosphate receptor 3 (Q99500 whole entry): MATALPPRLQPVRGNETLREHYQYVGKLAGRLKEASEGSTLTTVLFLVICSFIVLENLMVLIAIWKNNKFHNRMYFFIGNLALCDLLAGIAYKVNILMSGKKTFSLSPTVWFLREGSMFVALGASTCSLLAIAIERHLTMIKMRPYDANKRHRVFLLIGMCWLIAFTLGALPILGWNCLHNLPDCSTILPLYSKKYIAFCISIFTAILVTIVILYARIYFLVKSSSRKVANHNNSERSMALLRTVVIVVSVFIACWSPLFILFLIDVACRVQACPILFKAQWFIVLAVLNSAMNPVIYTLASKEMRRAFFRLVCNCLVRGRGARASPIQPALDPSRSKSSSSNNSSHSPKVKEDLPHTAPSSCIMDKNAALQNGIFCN

[8] = biological target: Sphingosine 1-phosphate receptor 1 (Homo sapiens, UniProt P21453); experiment: Late stage counterscreen assay for S1P4 antagonists: Fluorescence dose response cell-based screening assay for antagonists of the Sphingosine 1-Phosphate Receptor 1 (S1P1). [Related pubchem assays (depositor defined):AID1510, AID1524, AID1692, AID1853, AID2332, AID489009, AID489017]; assay type: functional
Chain of Sphingosine 1-phosphate receptor 1 (P21453 whole entry): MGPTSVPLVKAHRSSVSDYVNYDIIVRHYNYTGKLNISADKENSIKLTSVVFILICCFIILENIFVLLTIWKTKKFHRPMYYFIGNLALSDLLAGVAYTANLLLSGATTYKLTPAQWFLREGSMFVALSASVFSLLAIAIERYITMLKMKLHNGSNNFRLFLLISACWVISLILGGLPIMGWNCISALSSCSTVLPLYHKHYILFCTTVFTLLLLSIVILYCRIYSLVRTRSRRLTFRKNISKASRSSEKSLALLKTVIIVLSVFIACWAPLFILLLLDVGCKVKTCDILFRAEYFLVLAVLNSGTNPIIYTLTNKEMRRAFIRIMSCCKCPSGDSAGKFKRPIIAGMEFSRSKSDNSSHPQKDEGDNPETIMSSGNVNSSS

[9] = biological target: Sphingosine 1-phosphate receptor 5 (Homo sapiens, UniProt Q9H228); experiment: Late stage counterscreen assay for S1P4 antagonists: Fluorescence dose response cell-based screening assay for antagonists of the Sphingosine 1-Phosphate Receptor 5 (S1P5). [Related pubchem assays (depositor defined):AID1510, AID1524, AID1692, AID1853, AID2332, AID489009, AID489017]; assay type: functional
[10] = biological target: Sphingosine 1-phosphate receptor 2 (Homo sapiens, UniProt O95136); experiment: Late stage counterscreen assay for S1P4 antagonists: Fluorescence dose response cell-based screening assay for antagonists of the Sphingosine 1-Phosphate Receptor 2 (S1P2). [Related pubchem assays (depositor defined):AID1510, AID1524, AID1692, AID1853, AID2332, AID489009, AID489017]; assay type: functional
Chain of Sphingosine 1-phosphate receptor 2 (O95136 whole entry): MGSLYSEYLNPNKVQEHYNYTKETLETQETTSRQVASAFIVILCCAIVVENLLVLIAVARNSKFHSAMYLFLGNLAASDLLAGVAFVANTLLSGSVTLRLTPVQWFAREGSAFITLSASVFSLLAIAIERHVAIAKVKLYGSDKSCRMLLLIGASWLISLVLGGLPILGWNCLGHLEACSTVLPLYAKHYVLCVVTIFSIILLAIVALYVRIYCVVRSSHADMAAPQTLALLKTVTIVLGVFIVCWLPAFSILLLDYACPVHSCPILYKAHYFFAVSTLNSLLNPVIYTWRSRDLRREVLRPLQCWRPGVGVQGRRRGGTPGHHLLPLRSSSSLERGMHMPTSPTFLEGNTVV

SMILES: O=C(Nc1ccc(S(=O)(=O)Nc2ccccc2)cc1)c1ccc(CN2CCOCC2)cc1
- EC50 (Ion channel NompC): > 29.9 µM (inactive)
- IC50 [1]: 48.1 µM (inactive)
- EC50 (Mucolipin-3): > 29.9 µM (not active)

- AC50 [2]: > 60 µM (inactive)
SMILES: COc1ccc(N2CCN(C(=O)CSc3nnc(-c4cccnc4)n3-c3ccccc3)CC2)cc1

SMILES: COc1ccc(N2C3=C(CC4=C2CCCC4=O)C(=O)CCC3)cc1
- IC50 (Protein Tat): > 100 µM (active)
- IC50 [3]: 17.7 µM (active)
- IC50 [4]: 0.372 µM (active)
- IC50 [5]: > 66 µM (inactive)
- IC50 [6]: > 66 µM (inactive)
- IC50 (Hexokinase HKDC1): 8.05 µM (active)

- IC50 (Genome polyprotein): 18.7 µM (active)
- IC50 (Coagulation factor XII): > 50 µM (inactive)
SMILES: O=C1C(Cl)=C(N2CCOCC2)C(=O)N1c1ccccc1

- IC50 [7]: > 25 µM (inactive)
- IC50 [8]: > 25 µM (inactive)
- IC50 [9]: > 25 µM (inactive)
- IC50 [10]: 9.5 µM (active)
SMILES: Cc1cccc(Cl)c1NC(=O)c1ccc(-c2cc(Cl)ccc2Cl)o1
